Laboratory results from PubChem BioAssay AID248 (DTP/NCI, 2004).
“And” between values parts separate entries of the source, which are not always exact repeats. Identical values can stand only once. Inconclusive results and toxic doses are left out. No stated cut-off is given here; in the data, active means T/C of 150% or more; inactive means T/C below 125%.

System: L1210 leukemia ip in BDF1 mice, survival T/C
Test: NCI In Vivo Anticancer Drug Screen. Data for tumor model L1210 Leukemia (intraperitoneal) in B6D2F1 (BDF1) mice
Conditions: higher = longer survival
Method in brief: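 In this screen, tumor-bearing mice given compound are compared to those given vehicle, and their survival values are reported as a treated-to-control quotient.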

[1] = endpoint: mean survival time, dose: 100.0 mg/kg/injection, schedule: Q01DX009 (ip), vehicle: saline with Tween-80
[2] = endpoint: mean survival time, dose: 200.0 mg/kg/injection, schedule: Q01DX009 (ip), vehicle: saline with Tween-80
[3] = endpoint: mean survival time, dose: 100.0 mg/kg/injection, schedule: Q04DX002 (ip), vehicle: saline with Tween-80
[4] = endpoint: mean survival time, dose: 100.0 mg/kg/injection, schedule: Q01DX009 (ip), vehicle: Klucel (hydroxypropylcellulose) (HPC)
[5] = endpoint: mean survival time, dose: 200.0 mg/kg/injection, schedule: Q01DX009 (ip), vehicle: Klucel (hydroxypropylcellulose) (HPC)
[6] = endpoint: mean survival time, dose: 100.0 mg/kg/injection, schedule: Q04DX003 (ip), vehicle: saline with Tween-80
[7] = endpoint: mean survival time, dose: 200.0 mg/kg/injection, schedule: Q04DX003 (ip), vehicle: saline with Tween-80
[8] = endpoint: mean survival time, dose: 400.0 mg/kg/injection, schedule: Q04DX003 (ip), vehicle: saline with Tween-80
[9] = endpoint: mean survival time, dose: 100.0 mg/kg/injection, schedule: Q01DX001 (ip), vehicle: saline
[10] = endpoint: mean survival time, dose: 400.0 mg/kg/injection, schedule: Q01DX001 (ip), vehicle: saline
[11] = endpoint: mean survival time, dose: 200.0 mg/kg/injection, schedule: Q01DX001 (ip), vehicle: saline
[12] = endpoint: mean survival time, dose: 400.0 mg/kg/injection, schedule: Q01DX009 (ip), vehicle: saline with Tween-80

Measured: T/C

CC(=O)OC1CCC2(C)C(=CC=C3C2=CCC2(C)C(=O)CCC32)C1 (centres undefined)
inactive: endpoint: mean survival time, dose: 50.0 mg/kg/injection, schedule: Q01DX009 (ip), vehicle: saline with Tween-80 87 % of control | [1] 90 % of control | [2] 90 % of control

CCN(CC)c1ccc(Sc2ccc([N+](=O)[O-])cc2[N+](=O)[O-])cc1
inactive: endpoint: mean survival time, dose: 100.0 mg/kg/injection, schedule: Q01DX001 (ip), vehicle: carboxymethylcellulose (CMC) 88 % of control | endpoint: mean survival time, dose: 200.0 mg/kg/injection, schedule: Q01DX001 (ip), vehicle: carboxymethylcellulose (CMC) 92 % of control | endpoint: mean survival time, dose: 400.0 mg/kg/injection, schedule: Q01DX001 (ip), vehicle: carboxymethylcellulose (CMC) 92 % of control

CC1CCCCN1Cc1ccccc1COC(=O)c1ccc([N+](=O)[O-])cc1Cl (centres undefined)
inactive: [3] 94 % of control | endpoint: mean survival time, dose: 200.0 mg/kg/injection, schedule: Q04DX002 (ip), vehicle: saline with Tween-80 97 % of control

COc1ccc(OC)c(-c2cc3c(OC)ccc(OC)c3[nH]2)c1
inactive: endpoint: mean survival time, dose: 25.0 mg/kg/injection, schedule: Q04DX002 (ip), vehicle: saline with Tween-80 96 % of control | endpoint: mean survival time, dose: 50.0 mg/kg/injection, schedule: Q04DX002 (ip), vehicle: saline with Tween-80 86 % of control | [3] 99 % of control

CCC(C)C(N)C(=O)OCc1ccccc1 (centres undefined)
inactive: endpoint: mean survival time, dose: 50.0 mg/kg/injection, schedule: Q01DX009 (ip), vehicle: Klucel (hydroxypropylcellulose) (HPC) 88 % of control | [4] 90 % of control | endpoint: mean survival time, dose: 100.0 mg/kg/injection, schedule: Q04DX002 (ip), vehicle: Klucel (hydroxypropylcellulose) (HPC) 95 % of control | [5] 92 % of control | endpoint: mean survival time, dose: 200.0 mg/kg/injection, schedule: Q04DX002 (ip), vehicle: Klucel (hydroxypropylcellulose) (HPC) 92 % of control | endpoint: mean survival time, dose: 400.0 mg/kg/injection, schedule: Q04DX002 (ip), vehicle: Klucel (hydroxypropylcellulose) (HPC) 89 % of control

Cc1ccc(C(=O)CCCCl)c(C)c1
inactive: [6] 99 % of control | [7] 94 % of control | [8] 96 % of control

O=C(Cc1ccccc1)c1ccc(N2CCOCC2)cc1
inactive: [9] 89 % of control | [10] 86 % of control

CN(C)CCCN1CCC2(CC[C@H]3CCCC[C@@H]3C2)CC1
inactive: endpoint: mean survival time, dose: 9.0 mg/kg/injection, schedule: Q01DX015 (ip), vehicle: saline 91 % of control | endpoint: mean survival time, dose: 18.0 mg/kg/injection, schedule: Q01DX015 (ip), vehicle: saline 97 % of control | endpoint: mean survival time, dose: 25.0 mg/kg/injection, schedule: Q01DX009 (ip), vehicle: saline 101 % of control | endpoint: mean survival time, dose: 25.0 mg/kg/injection, schedule: Q04DX003 (ip), vehicle: saline 90 % of control | endpoint: mean survival time, dose: 36.0 mg/kg/injection, schedule: Q01DX015 (ip), vehicle: saline 101 % of control | endpoint: mean survival time, dose: 50.0 mg/kg/injection, schedule: Q01DX009 (ip), vehicle: saline 101 % of control | endpoint: mean survival time, dose: 50.0 mg/kg/injection, schedule: Q04DX003 (ip), vehicle: saline 93 % of control | endpoint: mean survival time, dose: 72.0 mg/kg/injection, schedule: Q01DX015 (ip), vehicle: saline 114 % of control | endpoint: mean survival time, dose: 100.0 mg/kg/injection, schedule: Q01DX009 (ip), vehicle: saline 109 % of control | endpoint: mean survival time, dose: 100.0 mg/kg/injection, schedule: Q04DX003 (ip), vehicle: saline 104 % of control

Cc1ccc(Sc2cccc3c2C(=O)c2c(Sc4ccc(C)cc4)cccc2C3=O)cc1
inactive: [6] 86 % of control | [7] 91 % of control | [8] 88 % of control

COC(=O)C[C@](O)(CCC(C)(C)O)C(=O)O[C@@H]1C(OC)=C[C@]23CCCN2CCc2cc4c(cc2[C@H]13)OCO4
inactive: endpoint: mean survival time, dose: 0.13 mg/kg/injection, schedule: Q#A X018 (ip), vehicle: saline 116 % of control | endpoint: mean survival time, dose: 0.25 mg/kg/injection, schedule: Q01DX009 (ip), vehicle: saline 104 % of control and 117 % of control and 124 % of control | endpoint: mean survival time, dose: 0.25 mg/kg/injection, schedule: Q01DX009 (ip), vehicle: water 118 % of control | endpoint: mean survival time, dose: 0.25 mg/kg/injection, schedule: Q03HX008 (ip), vehicle: saline 109 % of control | endpoint: mean survival time, dose: 0.25 mg/kg/injection, schedule: Q03HX016 (ip), vehicle: saline 113 % of control | endpoint: mean survival time, dose: 0.25 mg/kg/injection, schedule: Q03HX024 (ip), vehicle: saline 118 % of control | endpoint: mean survival time, dose: 0.25 mg/kg/injection, schedule: Q#A X018 (ip), vehicle: saline 114 % of control | endpoint: mean survival time, dose: 0.5 mg/kg/injection, schedule: Q01DX009 (oral), vehicle: saline 105 % of control | endpoint: mean survival time, dose: 0.5 mg/kg/injection, schedule: Q01DX009 (sc), vehicle: saline 110 % of control | endpoint: mean survival time, dose: 0.5 mg/kg/injection, schedule: Q03HX008 (ip), vehicle: saline 116 % of control | endpoint: mean survival time, dose: 0.5 mg/kg/injection, schedule: Q03HX016 (ip), vehicle: saline 107 % of control | endpoint: mean survival time, dose: 0.5 mg/kg/injection, schedule: Q03HX024 (ip), vehicle: saline 119 % of control | endpoint: mean survival time, dose: 0.5 mg/kg/injection, schedule: Q#A X018 (ip), vehicle: saline 122 % of control | endpoint: mean survival time, dose: 1.0 mg/kg/injection, schedule: Q01DX009 (oral), vehicle: saline 111 % of control | endpoint: mean survival time, dose: 1.0 mg/kg/injection, schedule: Q01DX009 (sc), vehicle: saline 121 % of control | endpoint: mean survival time, dose: 1.0 mg/kg/injection, schedule: Q03HX008 (ip), vehicle: saline 124 % of control | endpoint: mean survival time, dose: 2.0 mg/kg/injection, schedule: Q01DX001 (ip), vehicle: saline 113 % of control | endpoint: mean survival time, dose: 2.0 mg/kg/injection, schedule: Q01DX009 (oral), vehicle: saline 112 % of control | endpoint: mean survival time, dose: 2.0 mg/kg/injection, schedule: Q04DX003 (ip), vehicle: saline 105 % of control | endpoint: mean survival time, dose: 2.0 mg/kg/injection, schedule: Q08DX002 (ip), vehicle: saline 101 % of control | endpoint: mean survival time, dose: 2.0 mg/kg/injection, schedule: Q#A X018 (ip), vehicle: saline 113 % of control | endpoint: mean survival time, dose: 4.0 mg/kg/injection, schedule: Q01DX001 (ip), vehicle: saline 110 % of control | endpoint: mean survival time, dose: 4.0 mg/kg/injection, schedule: Q01DX009 (ip), vehicle: saline 119 % of control and 124 % of control | endpoint: mean survival time, dose: 4.0 mg/kg/injection, schedule: Q01DX009 (oral), vehicle: saline 98 % of control | endpoint: mean survival time, dose: 4.0 mg/kg/injection, schedule: Q01DX009 (sc), vehicle: saline 92 % of control | endpoint: mean survival time, dose: 4.0 mg/kg/injection, schedule: Q04DX003 (ip), vehicle: saline 123 % of control | endpoint: mean survival time, dose: 4.0 mg/kg/injection, schedule: Q08DX002 (ip), vehicle: saline 107 % of control | endpoint: mean survival time, dose: 8.0 mg/kg/injection, schedule: Q01DX001 (ip), vehicle: saline 117 % of control | endpoint: mean survival time, dose: 8.0 mg/kg/injection, schedule: Q04DX003 (ip), vehicle: saline 87 % of control | endpoint: mean survival time, dose: 8.0 mg/kg/injection, schedule: Q08DX002 (ip), vehicle: saline 107 % of control | endpoint: mean survival time, dose: 16.0 mg/kg/injection, schedule: Q08DX002 (ip), vehicle: saline 98 % of control | endpoint: median survival time, dose: 0.25 mg/kg/injection, schedule: Q01DX009 (ip), vehicle: saline 100 % of control and 101 % of control | endpoint: median survival time, dose: 0.5 mg/kg/injection, schedule: Q01DX009 (ip), vehicle: saline 105 % of control and 107 % of control | endpoint: median survival time, dose: 1.0 mg/kg/injection, schedule: Q01DX009 (ip), vehicle: saline 110 % of control and 115 % of control

CN1CN(c2ccccc2)C2(CCN(C3(c4ccccc4)CCCCC3)CC2)C1=O
inactive: endpoint: mean survival time, dose: 50.0 mg/kg/injection, schedule: Q01DX001 (ip), vehicle: saline 102 % of control | [9] 92 % of control | [11] 94 % of control

COc1cccc(C[Si](C)C)c1
inactive: [6] 104 % of control | [7] 107 % of control

c1ccc(-c2ccc3ncccc3c2)cc1
inactive: [9] 97 % of control | [11] 100 % of control | [10] 105 % of control

O=[N+]([O-])c1ccc(Sc2cccs2)c([N+](=O)[O-])c1
inactive: [1] 97 % of control | [6] 105 % of control | [2] 100 % of control | [7] 93 % of control | [12] 102 % of control | [8] 93 % of control

CC(C)COC(=O)c1cc(O)c(O)c(O)c1
inactive: [1] 100 % of control | [6] 97 % of control | [2] 107 % of control | [7] 105 % of control | [12] 107 % of control | [8] 95 % of control

CCC(=O)Nc1cccc(C)c1C
inactive: [4] 93 % of control | endpoint: mean survival time, dose: 100.0 mg/kg/injection, schedule: Q04DX003 (ip), vehicle: Klucel (hydroxypropylcellulose) (HPC) 102 % of control | [5] 106 % of control | endpoint: mean survival time, dose: 200.0 mg/kg/injection, schedule: Q04DX003 (ip), vehicle: Klucel (hydroxypropylcellulose) (HPC) 102 % of control | endpoint: mean survival time, dose: 400.0 mg/kg/injection, schedule: Q04DX003 (ip), vehicle: Klucel (hydroxypropylcellulose) (HPC) 95 % of control
